Laboratory results published in patent US20040192641A1, “Special preparation of anticancer drugs made by novel nanotechnology” (priority 2003, published 2004).
Marks after values point to notes of the source that are not given here.

Columns and labels:
tumor S-180 [1] = assay: Survival time of tumor-bearing mice (CUR); conditions: mouse, in vivo
Description: (§1) The acceptable criterion for determining the anti-tumor efficacy of the free CUR and PK-CUR-NP are the determination of the life span prolongation.
(§2) The number of dead cells in the peritoneal fluid of mice treated with PK-CUR-NP increased life span when compared to free CUR.

tumor S-180 [2] = assay: Stained dead tumor cells in peritoneal fluid of tumor-bearing mice (CUR); format: in vivo; conditions: 12th day of tumor S-180 inoculation
Description: as §1, §2

[3] = test system: malignant melanocarcinoma B16; assay: Inhibition of tumor cell proliferation, B16; format: cell-based, human; conditions: Mus musculus; 1 μg/ml, 72 hours
Description: (§3) Human tumor cell lines: Hela leukemia HL-60, malignant melanocarcinoma B16, oral epidermoid carcinoma (KB), lung carcinoma (A549), breast carcinoma MCF-7, adenocarcinoma of stomach.
(§4) Animal tumor cell lines: Walker carcinoma, LLC-WRC-256, malignant melanoma (RMMI 1846), 3T3, and S-180 sarcoma (CCRF-180). All lines were routinely cultured in the RPMI1640 medium supplemented 20% fetal calf serum. The experiment was carried out in 96 microplate, each well had 5×10^5 cells and given desired concentration of 1 μg/ml (1×10^−6 g/ml) drug. Then the plate was incubated at 37° C. in an atmosphere of humidified air enriched with 5 percent carbon dioxide for 72 hours.
(§5) Inhibition percent rate of tumor cell proliferation was obtained according to the bellow formula. [formula]

breast carcinoma MCF-7 = assay: Inhibition of tumor cell proliferation, MCF-7; format: cell-based; conditions: Homo sapiens, MCF7; 1 μg/ml, 72 hours
Description: as §3, §4, §5

HL-60 cells = assay: Differentiation of human leukemic cells (HL-60), Example 57; format: cell-based
Description: Cell Lines. HL-60 cells were established from a patient with acute myeloid leukemia. The cells were cultured in culture flasks with RPMI plus 10% FCS.
Studies of Induction of Differentiation. Differentiation of HL-60 cells was assessed by their abilities to produced superoxide as measured by reduction of NBT, by NSE staining and by morphology as detected on cytospin preparations stained with Diff-Quick stain Set, and by analysis of membrane-bound differentiation markers with two-color immunofluorescence. Briefly, cells were preincubated at 4° C. for 60 min in 10% human AB serum and then with FITC-conjugated mouse IgGI isotype control. Analysis of fluorescence was performed on a flow cytometer.
Cell Cycle Analysis. The cell cycle was analyzed by flow cytometry after 60 h of incubation of HL-60 cells either with or without HHT (10^−8 M) as described. Briefly, the cells were fixed in cold methanol and incubated for 30 min at 4° C. in the dark with a solution of 50 μg/ml propidium iodide, 1 mg/ml Rnase, and 0.1% NP40. Analysis was performed immediately after staining using the CELLFIT program whereby the S-phase was calculated with Rfit model.
Clonogenic Assay in soft Agar. HL-60 cells were culture in a two-layer soft agar system for 10 days without adding any growth factors as described previously, and colonies were counted using an inverted microscope. […]

sarcoma-180 solid tumors = assay: Effect on sarcoma-180 solid tumors in mice (survival); format: in vivo; conditions: Example 54; percentage survival, 30 days observation after tumor cell inoculation
L1210 leukemia cells = assay: Anti-leukemia activity against lymphoid leukemia L1210 in mice (survival); format: in vivo; conditions: Example 54; i.p. once a day; dose 1, 10, 20 mg/kg/day, group not stated
Description: (§6) Animals: Adult DBA/2J male mice, 6 to 8 weeks old. All animals weighed approximately 25 g when used in experiments. Mice were assigned randomly to treatment and control groups. Each member of which received identical dosed (i.p.) of PK or 0.9% NaCl solution for all injections. Volumes were 0.01 ml/g body weight.
(§7) Tumor: L1210 or P388 leukemia cells induced in mice by inoculation with L1210 or P388 leukemia cells (1.0×10^5).
(§8) The leukemia cells were passed i.p. weekly. L1210 or P388 cells were cultured at 37° C. in RPMI-1640 medium (GIBCO) without antibiotics and supplemented with 10% fetal calf serum.
(§9) After the tumor implantation (1×10^5 leukemia cells), PK was injected intraperitoneally once a day. The treatment was started between the end of 2nd and 6th day after inoculation. Dose of PK was 25 mg/kg/day for PK groups. Control mice were treated with same value of 0-9% NaCl. Anti-leukemia activity was expressed as T/C %. T is median survival days of treated group and C is that of control group. A T/C value was greater that 100% means the treated mice is surviving longer than the control mice. […] The statistical significance of data was determined by student's test. […]
(§10) After the tumor implantation (1×10^5 leukemia cells), PK-HHT-SSL was injected intraperitoneally once a day. […] Anti-leukemia activity was expressed as T/C %. […] The statistical significance of data was determined by student's test.

gastric cancer cells = assay: Differentiation of gastric cancer cells; format: cell-based
Description: The gastric cancer cells and normal cells were cultured in PRMI 1640 medium supplement with 10% FCS serum. Other method is similar to example 1.

P388 leukemia cells = assay: Anti-leukemia activity against P388 lymphocytic leukemia in mice (survival); format: in vivo; conditions: Example 54; i.p. once a day; dose 1, 10, 20 mg/kg/day, group not stated
Description: as §6, §7, §8, §9, §10

[4] = Pharmacokinetic study: tissue AUC; format: in vivo, mice; conditions: 0.5 mg HHT/kg via the tail
Description: Present example described Pharmacokinetic studied of NP. Free HHT and PK-HHT-NP were given to mice via the tail at dose of 0.5 mg HHT/kg. Other methods are as same as method of Example 22.

C=C1C[C@@]2(O)O[C@@]3(C[C@H]2C(C)C)[C@@H](C)CC[C@@H]13 [CUR, Curcumol]
Increase in life span T/C (%) (tumor S-180 [1]): 134.78% | MST (tumor S-180 [1]): 31 ± 1.9 days | Number of stained dead tumor cells (1 × 10^6 cells mL^−1) (tumor S-180 [2]): 5.36 ± 0.95 1 × 10^6 cells mL^−1

COC(=O)C[C@](O)(CCCC(C)(C)O)C(=O)O[C@@H]1C(OC)=C[C@]23CCCN2CCc2cc4c(cc2[C@H]13)OCO4 [HHT, Homoharringtonine]
inhibition at 1 µg/mL [3]: 73.8 ± 8.1% | inhibition at 1 µg/mL (breast carcinoma MCF-7): 78.5 ± 7.9% | NBT (%) (HL-60 cells): 65* % | Mean survival (%) (sarcoma-180 solid tumors): 58.6% | Survival time (L1210 leukemia cells): 15.6 ± 2.8 days | NBT (%) (gastric cancer cells): 58* % | NSE (%) (gastric cancer cells): 60* % | Survival time (P388 leukemia cells): 19.8 ± 4.2 days | Tissue AUC, Blood [4]: 3.0 µg·h/g | Tissue AUC, Cancer [4]: 12.0 µg·h/g | Tissue AUC, Heart [4]: 89.2 µg·h/g | Tissue AUC, Kidney [4]: 243.2 µg·h/g | Tissue AUC, Liver [4]: 168.8 µg·h/g | Tissue AUC, Lung [4]: 138.9 µg·h/g | Tissue AUC, Spleen [4]: 192.8 µg·h/g
